Data reported in PubChem BioAssay (NCI).
Where “and” joins values, the source holds several entries; their conditions need not be identical. Identical values can stand only once.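 Assay format: 96-well plates, 48-hour exposure. At the GI50, growth is halved. TGI: concentration producing complete growth inhibition.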

Legend:
Assay in all cases: DTP human tumour cell line panel, 48 h
BT-549 breast = system: BT-549 breast
OVCAR-5 ovarian = system: OVCAR-5 ovarian
HT29 colon = system: HT29 colon
HL-60(TB) leukemia = system: HL-60(TB) leukemia
PC-3 prostate = system: PC-3 prostate
NCI-H522 lung = system: NCI-H522 lung
UO-31 renal = system: UO-31 renal
ACHN renal = system: ACHN renal
SF-268 CNS = system: SF-268 CNS
EKVX NSCLC = system: EKVX NSCLC

Structure (SMILES) | GI50 (BT-549 breast) | TGI (BT-549 breast) | GI50 (OVCAR-5 ovarian) | TGI (OVCAR-5 ovarian) | GI50 (HT29 colon) | TGI (HT29 colon) | GI50 (HL-60(TB) leukemia) | TGI (HL-60(TB) leukemia) | GI50 (PC-3 prostate) | TGI (PC-3 prostate) | GI50 (NCI-H522 lung) | TGI (NCI-H522 lung) | GI50 (UO-31 renal) | TGI (UO-31 renal) | GI50 (ACHN renal) | TGI (ACHN renal) | GI50 (SF-268 CNS) | TGI (SF-268 CNS) | GI50 (EKVX NSCLC) | TGI (EKVX NSCLC)
N#Cc1c(-c2ccc(Cl)cc2)n([O-])c2ccccc2[n+]1=O | 23.2 µM | 52.3 µM | 16.7 µM | 30.6 µM | 17.2 µM | 42.2 µM | 3.1 µM | 11.4 µM | 3.26 µM | 13 µM | 14.7 µM | 38.5 µM | 13.7 µM | 29.7 µM | 4.2 µM | 16.8 µM | 14.6 µM | 33.8 µM | 5.63 µM | 20.5 µM
O=C(CN1C(=O)c2ccccc2C1=O)NC1(C(=O)O)CCCC1 | – | > 100 µM | – | > 100 µM | – | > 100 µM | – | > 100 µM | – | > 100 µM | – | > 100 µM | – | > 100 µM | – | > 100 µM | – | > 100 µM | – | > 100 µM
CC(CCC/C=C/CCCN(C)C(=N)N)CC(C)C1OC(=O)C(C)C(O)/C=C/C(C)C(O)C(C)C(O)C(C)C(O)CCCC(O)CC2(O)OC(CC(OC(=O)CC(=O)O)CC(O)CC(O)C(C)C(O)/C=C/C=C/C1C)CC(O)C2O (stereo unspecified) | 2.19 µM and 3.16 µg/mL | 4.03 µM and 12 µg/mL | 14.4 µM and 13.5 µg/mL | 29.9 µM and 26.1 µg/mL | 1.76 µM and 3 µg/mL | 3.41 µM and 11.7 µg/mL | 6.5 µg/mL | 21.2 µg/mL | 3.09 µM and 4.86 µg/mL | 11.5 µM and 16 µg/mL | 2.38 µM and 2.79 µg/mL | 10.5 µM and 12.9 µg/mL | 3.36 µM and 14.5 µg/mL | 8.6 µM and 26.1 µg/mL | 2 µM and 5.72 µg/mL | 4.31 µM and 20.6 µg/mL | 2.76 µM and 6.7 µg/mL | 7.24 µM and 16.5 µg/mL | 3.41 µM and 6.84 µg/mL | 12.6 µM and 16.8 µg/mL
Cn1c(N)cc(=O)nc1N | – | > 100 µM | – | > 100 µM | – | > 100 µM | – | > 100 µM | – | > 100 µM | – | > 100 µM | – | > 100 µM | – | > 100 µM | – | > 100 µM | – | > 100 µM
Cc1ccc(SCN2CCCCC2)cc1 (tested in a mixture with another compound) | – | 15 µM | – | 25.8 µM | – | 31.5 µM | – | 4.98 µM | – | 30.2 µM | – | 8.86 µM | – | 30.2 µM | – | 28.7 µM | – | 20.6 µM | – | 39.2 µM
COc1cccc2c1C(=N)c1c(O)c3c(c(O)c1C2=O)C[C@@](O)(C(C)=O)C[C@@H]3OC1CC(N)C(O)C(C)O1 (stereo partly specified) | 1.66 µM | 16.2 µM | – | – | – | 7.19 µM and 4.43 µM and 1.71 µM | – | 0.287 µM and 0.192 µM | – | 2.98 µM | – | 2.4 µM and 1.13 µM and 1.91 µM | – | – | 0.472 µM | – | – | 3.07 µM and 4.61 µM and 5.69 µM | – | 3.82 µM and 7.64 µM and 2.29 µM
Cn1c(N)c(N=Nc2ccc(S(N)(=O)=O)cc2)c(=O)n(C)c1=O | – | > 100 µM | – | > 100 µM | – | > 100 µM | – | > 100 µM | – | > 100 µM | – | > 100 µM | – | > 100 µM | – | > 100 µM | – | > 100 µM | – | > 100 µM
COc1cc(C2C3=C(COC3=O)N(CCO)c3cc4c(cc32)CCC4)cc(OC)c1OC (stereo unspecified) | 0.136 µM | > 18.4 µM | 0.164 µM | > 32.5 µM | 0.0975 µM | – | 0.0842 µM | – | 0.112 µM | > 32.5 µM | 0.041 µM | 0.212 µM | 0.228 µM | > 17 µM | 0.229 µM | > 32.5 µM | 0.0934 µM | – | 1.12 µM | > 32.5 µM
COc1ccc(-c2nccn2-c2cc(OC)c(OC)c(OC)c2)cc1 | > 32.1 µM | > 100 µM | 10.8 µM | > 79.4 µM | 1.05 µM | > 46.2 µM | 25.4 µM | > 100 µM | 1.81 µM | > 100 µM | 2.8 µM | > 100 µM | 9.38 µM | > 93 µM | 6.07 µM | > 100 µM | 16.6 µM | > 100 µM | > 54.5 µM | > 100 µM
CCN(CC)CCC(CNc1c2ccc(Cl)cc2nc2ccc(OC)cc12)c1ccccc1 (stereo unspecified) | 1.97 µM | 3.78 µM | 1.94 µM | 5.64 µM | 0.219 µM | 0.664 µM | 1.87 µM | 4.71 µM | 1.96 µM | 6.16 µM | 0.555 µM | 2.1 µM | 1.3 µM | 3.27 µM | 1.05 µM | 3.19 µM | 1.33 µM | 3.8 µM | 2.32 µM | 8.3 µM
CCCC1C2=C(C(=O)OC2=O)C2C(CC)CC3=C(C(=O)OC3=O)C12 (stereo unspecified) | – | > 100 µM | – | > 100 µM | – | > 100 µM | – | > 100 µM | – | > 100 µM | – | – | – | > 100 µM | – | > 100 µM | – | > 100 µM | – | > 100 µM
Cn1cnc2nc(Cl)nc(Cl)c21 | 10.7 µM | 66.6 µM | 3.56 µM | 19.9 µM | 0.365 µM | 12.6 µM | 3.16 µM | 8.08 µM | 0.594 µM | 12.8 µM | 1.17 µM | 3.26 µM | 9.96 µM | > 100 µM | 1.44 µM | 18.5 µM | 3.22 µM | 38.2 µM | 13.6 µM | 34.8 µM
Cc1ccc(S(=O)(=O)NC(CCCCN)C(=O)CCl)cc1 (stereo unspecified) | 27.6 µM | 89.6 µM | > 100 µM | > 100 µM | > 100 µM | > 100 µM | – | – | 52.6 µM | > 100 µM | 31 µM | > 100 µM | > 100 µM | > 100 µM | 92.7 µM | > 100 µM | 67.5 µM | > 100 µM | 27.3 µM | 93.4 µM
Oc1c(Br)cc(Br)c2cccnc12 | 4 µM | > 100 µM | 6.21 µM | 49.5 µM | 6.55 µM | 26.1 µM | 2.28 µM | 5.13 µM | 4.5 µM | > 100 µM | – | – | 2.56 µM | 16.5 µM | 3.48 µM | 18.6 µM | 3.36 µM | > 100 µM | 3.45 µM | 19.1 µM
